Source: ChEMBL document CHEMBL1154932, “Structure-based drug design enables conversion of a DFG-in binding CSF-1R kinase inhibitor to a DFG-out binding mode” (Bioorg Med Chem Lett, 2010)

Key:
hERG (KCNH2) = hERG (KCNH2) (Homo sapiens, UniProt Q12809); experiment: Inhibition of CyB-tagged dofetilide binding to human ERG at 10 uM; conditions: probe CyB-tagged dofetilide
[1] = target: Macrophage colony-stimulating factor 1 receptor (Homo sapiens, UniProt P07333); experiment: Inhibition of human CSF1R autophosphorylation expressed in HEK293 cells after 1 hr by ELISA
Sequence of Macrophage colony-stimulating factor 1 receptor (P07333 whole entry): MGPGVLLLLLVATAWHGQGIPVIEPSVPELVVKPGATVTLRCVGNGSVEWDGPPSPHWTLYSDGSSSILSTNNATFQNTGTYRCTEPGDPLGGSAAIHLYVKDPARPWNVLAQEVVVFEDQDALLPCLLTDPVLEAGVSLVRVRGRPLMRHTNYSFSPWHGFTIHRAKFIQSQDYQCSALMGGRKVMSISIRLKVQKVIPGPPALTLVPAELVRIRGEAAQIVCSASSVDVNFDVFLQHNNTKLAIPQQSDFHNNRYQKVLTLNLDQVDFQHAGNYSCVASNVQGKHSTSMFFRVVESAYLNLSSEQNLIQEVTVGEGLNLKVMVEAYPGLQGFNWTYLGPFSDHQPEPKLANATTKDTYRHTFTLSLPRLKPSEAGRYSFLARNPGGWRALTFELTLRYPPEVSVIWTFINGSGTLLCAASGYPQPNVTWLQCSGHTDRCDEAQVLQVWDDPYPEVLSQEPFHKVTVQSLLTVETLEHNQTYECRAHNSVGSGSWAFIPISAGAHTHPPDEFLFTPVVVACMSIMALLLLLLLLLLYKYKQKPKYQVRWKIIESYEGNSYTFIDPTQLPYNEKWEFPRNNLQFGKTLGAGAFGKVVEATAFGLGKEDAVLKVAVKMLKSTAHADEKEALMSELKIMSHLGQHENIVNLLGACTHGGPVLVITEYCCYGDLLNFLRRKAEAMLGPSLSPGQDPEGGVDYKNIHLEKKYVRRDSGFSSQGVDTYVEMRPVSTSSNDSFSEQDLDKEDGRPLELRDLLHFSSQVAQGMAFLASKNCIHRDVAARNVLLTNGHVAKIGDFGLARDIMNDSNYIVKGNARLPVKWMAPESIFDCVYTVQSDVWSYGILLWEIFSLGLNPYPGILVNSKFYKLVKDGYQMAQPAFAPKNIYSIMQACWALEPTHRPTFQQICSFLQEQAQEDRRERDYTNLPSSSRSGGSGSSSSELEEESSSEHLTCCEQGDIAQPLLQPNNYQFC

Sequence of hERG (KCNH2) (Q12809 whole entry): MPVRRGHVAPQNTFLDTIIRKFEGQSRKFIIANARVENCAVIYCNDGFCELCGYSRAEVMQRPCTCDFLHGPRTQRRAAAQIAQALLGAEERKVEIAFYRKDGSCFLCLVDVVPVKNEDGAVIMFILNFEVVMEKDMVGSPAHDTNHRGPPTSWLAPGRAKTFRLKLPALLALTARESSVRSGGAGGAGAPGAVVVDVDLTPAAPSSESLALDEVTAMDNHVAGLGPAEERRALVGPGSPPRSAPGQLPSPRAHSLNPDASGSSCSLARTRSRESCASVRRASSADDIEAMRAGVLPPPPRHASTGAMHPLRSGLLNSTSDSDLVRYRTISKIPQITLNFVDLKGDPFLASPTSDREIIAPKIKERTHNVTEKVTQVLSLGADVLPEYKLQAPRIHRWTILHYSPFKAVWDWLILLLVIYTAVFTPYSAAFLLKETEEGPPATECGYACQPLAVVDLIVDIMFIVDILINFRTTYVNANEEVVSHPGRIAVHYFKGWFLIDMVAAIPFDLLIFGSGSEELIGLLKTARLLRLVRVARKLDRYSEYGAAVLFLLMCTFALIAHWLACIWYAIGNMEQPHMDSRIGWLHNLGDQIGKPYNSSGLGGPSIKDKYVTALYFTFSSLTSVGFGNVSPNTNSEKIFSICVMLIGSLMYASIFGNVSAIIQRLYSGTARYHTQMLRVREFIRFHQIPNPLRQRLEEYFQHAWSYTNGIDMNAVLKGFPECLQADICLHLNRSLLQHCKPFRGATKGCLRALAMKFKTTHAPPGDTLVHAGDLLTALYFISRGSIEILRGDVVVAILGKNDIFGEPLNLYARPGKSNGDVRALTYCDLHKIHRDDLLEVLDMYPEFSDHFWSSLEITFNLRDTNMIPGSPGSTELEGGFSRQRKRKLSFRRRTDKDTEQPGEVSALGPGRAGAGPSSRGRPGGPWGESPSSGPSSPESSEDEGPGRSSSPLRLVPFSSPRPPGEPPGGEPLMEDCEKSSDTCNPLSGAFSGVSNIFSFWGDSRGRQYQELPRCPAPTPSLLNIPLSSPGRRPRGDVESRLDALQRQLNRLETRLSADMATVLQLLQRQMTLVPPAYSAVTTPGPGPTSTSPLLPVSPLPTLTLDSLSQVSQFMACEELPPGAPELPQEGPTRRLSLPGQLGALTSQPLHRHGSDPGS

SMILES	inhibition at 10 µM (hERG (KCNH2))	IC50 [1]
Cn1cc(-c2cnc(N)c(OCc3c(Cl)cccc3Cl)n2)cn1	7%	
COc1ccc(COc2ncc(Oc3nc(-c4cnn(C)c4)cnc3N)cc2OC)cc1		12 nM
Cn1cc(-c2cnc(N)c(NCc3c(Cl)cccc3Cl)n2)cn1	6%	
Cn1cc(-c2cnc(N)c(OCc3ccccc3Cl)n2)cn1	7%	
Nc1ncc(-c2ccc(C(=O)N3CCC[C@H]3CN3CCCC3)cc2)nc1NCc1c(Cl)cccc1Cl	78%	
Nc1ncc(-c2ccc(C(=O)N3CCC[C@H]3CN3CCCC3)cc2)nc1OCc1c(Cl)cccc1Cl	91%	
